According to patent US8399683B2 (TetraLogic Pharmaceuticals, priority 2008, dated 2013):
pKd: −log10 of the molar value.

How the values were obtained:
[1] = system: SK-OV-3 cells; assay: Growth inhibition of ovarian cancer cell line SK-OV-3 (MTT assay, cell survival); type: cell-based; conditions: Homo sapiens, drug concentration that results in 50% cell survival, 72 hrs incubation, reported as ranges
Method in brief: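 After overnight seeding in McCoy's medium with 10% FBS, SK-OV-3 cells were exposed to compound at 0.003-10 μM for 72 hrs at 37° C. MTT was then added for 3 h, with DMSO solubilization and OD read at 535 nm. CC50 is the concentration giving 50% survival relative to untreated control, reported as ranges.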

[2] = molecular target: cIAP-1 BIR-3 (Homo sapiens, UniProt Q13490); assay: Fluorescence polarization binding affinity to cIAP-1 BIR-3 (competition with AbuRPF-K(5-Fam)-NH2); conditions: 5 nM labeled peptide, 40 nM BIR3, 15 min at RT, pH 7.5; reported as ranges; read-out: KD (c-IAP-1 BIR3)
Sequence of cIAP-1 BIR-3 (Q13490 266-352 limits assumed): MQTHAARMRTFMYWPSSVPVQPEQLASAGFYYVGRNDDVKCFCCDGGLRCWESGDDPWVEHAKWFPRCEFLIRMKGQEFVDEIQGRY
Method in brief: (§1)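 Test peptides at varied concentrations competed with 5 nM fluorescent Smac-mimetic tracer for 40 nM BIR3 domain, 15 min at RT in 0.1M potassium phosphate pH 7.5 with […] bovine g-globulin. Polarization (mP) read at 485/520 nm; KD reported in bins (A=<0.1 μM, B=0.1–1 μM, C>1–10 μM, D=>10 μM).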

[3] = molecular target: T1, XIAP BIR-3 (Homo sapiens, UniProt P98170); assay: Fluorescence polarization binding affinity to XIAP BIR-3 (competition with AbuRPF-K(5-Fam)-NH2); conditions: 5 nM labeled peptide, 40 nM BIR3, 15 min at RT, pH 7.5; reported as ranges
T1 construct: 40 nM of the respective IAP BIR3
T1 sequence (P98170 241-356 limits assumed): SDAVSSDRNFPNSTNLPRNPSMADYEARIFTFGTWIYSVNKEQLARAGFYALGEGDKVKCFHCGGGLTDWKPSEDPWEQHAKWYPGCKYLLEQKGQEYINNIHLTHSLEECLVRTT
Method in brief: as §1

| SMILES | CC50 [1] [µM] | pKd [2] | pKd [3] |
| --- | --- | --- | --- |
| CN[C@@H](C)C(=O)N[C@H](C(=O)N1CC[C@@H]2[C@H]1[C@@H](c1c[nH]c3ccccc13)CN2C(C)C)C1CCCCC1 [Example 98] | 0.1 to 1 | 6.00 to 7.00 | 5.00 to 6.00 |
| CN[C@@H](C)C(=O)N[C@H](C(=O)N1CC[C@@H]2[C@H]1[C@@H](c1c[nH]c3cc(F)ccc13)CN2C(=O)OCc1ccccc1)C1CCCCC1 [Example 99] | < 0.1 | > 7.00 | > 7.00 |
| CN[C@@H](C)C(=O)N[C@H](C(=O)N1CC[C@@H]2[C@H]1[C@@H](c1c[nH]c3cc(F)ccc13)CN2Cc1ccccc1)[C@@H](C)OC [Example 100] | < 0.1 | > 7.00 | > 7.00 |
| CN[C@@H](C)C(=O)N[C@H](C(=O)N1CC[C@@H]2[C@H]1[C@@H](c1c[nH]c3cc(F)ccc13)CN2Cc1ccccc1)[C@@H](C)O [Example 101] | 0.1 to 1 | > 7.00 | 6.00 to 7.00 |
| CN[C@@H](C)C(=O)N[C@@H](COC)C(=O)N1CC[C@@H]2[C@H]1[C@@H](c1c[nH]c3cc(F)ccc13)CN2Cc1ccccc1 [Example 102] | 1 to 10 | 6.00 to 7.00 | 5.00 to 6.00 |
| CN[C@@H](C)C(=O)N[C@@H](CO)C(=O)N1CC[C@@H]2[C@H]1[C@@H](c1c[nH]c3cc(F)ccc13)CN2Cc1ccccc1 [Example 103] | 1 to 10 | 6.00 to 7.00 | 5.00 to 6.00 |
| CN[C@@H](C)C(=O)N[C@H](C(=O)N1CC[C@@H]2[C@H]1[C@@H](c1c[nH]c3cc(F)ccc13)CN2Cc1ccccc1)C(C)(C)C [Example 104] | < 0.1 | > 7.00 | > 7.00 |
| CN[C@@H](C)C(=O)N[C@H](C(=O)N1CC[C@@H]2[C@H]1[C@@H](c1c[nH]c3cc(F)ccc13)CN2Cc1ccccc1)C(C)C [Example 105] | < 0.1 | > 7.00 | 6.00 to 7.00 |
| CC[C@H](NC(=O)[C@H](C)NC)C(=O)N1CC[C@@H]2[C@H]1[C@H](c1c[nH]c3cc(F)ccc13)CN2Cc1ccccc1 [Example 106] | 1 to 10 | 6.00 to 7.00 | < 5.00 |
| CN[C@@H](C)C(=O)N[C@H](C(=O)N1CC[C@@H]2[C@H]1[C@@H](c1c[nH]c3cc(F)ccc13)CN2Cc1ccccc1)C1CCCCC1 [Example 107] | 0.1 to 1 | > 7.00 | > 7.00 |
| CN[C@@H](C)C(=O)N[C@H](C(=O)N1CC[C@@H]2[C@H]1CCN2C(=O)OCc1ccccc1)C1CCCCC1 [Example 108, 4-[2-Cyclohexyl-2-(2-methylamino-propionylamino)-acetyl]hexahydro-pyrrolo[3,2-b]pyrrole-1-carboxylic acid benzyl ester] | 0.1 to 1 | > 7.00 | 5.00 to 6.00 |
| CN[C@@H](C)C(=O)N[C@H](C(=O)N1CC[C@H]2NCC[C@H]21)C1CCCCC1 [Example 109, N-[1-Cyclohexyl-2-(hexahydro-pyrrolo[3,2-b]pyrrol-1-yl)-2-oxo-ethyl]-2-methylamino-propionamide] | > 10 | 6.00 to 7.00 | 5.00 to 6.00 |
| CNC(C)C(=O)NC(C(=O)N1CCC2C1CCN2C(=O)C(NC(=O)C(C)NC)C1CCCCC1)C1CCCCC1 (stereo not drawn) [Example 110, N-(1-Cyclohexyl-2-{4-[2-cyclohexyl-2-(2-methylamino-propionylamino)-acetyl]-hexahydro-pyrrolo[3,2-b]pyrrol-1-yl}-2-oxo-ethyl)-2-methylamino-propionamide] | 1 to 10 | > 7.00 | 5.00 to 6.00 |
| CNC(C)C(=O)NC(C(=O)N1CC(c2c[nH]c3cc(F)ccc23)C2C1CCN2C(=O)C(NC(=O)C(C)NC)C1CCCCC1)C1CCCCC1 (stereo not drawn) [Example 111, N-{1-Cyclohexyl-2-[4-[2-cyclohexyl-2-(2-methylamino-propionylamino)-acetyl]-6-(6-fluoro-1H-indol-3-yl)-hexahydro-pyrrolo[3,2-b]pyrrol-1-yl]-2-oxo-ethyl}-2-methylamino-propionamide] | < 0.1 | > 7.00 | > 7.00 |
